Consider 2 compounds from US20240189309A1, “TYK2 INHIBITORS AND USES THEREOF” (Sudo Biosciences Limited, priority 2021, published 2024).

Test [1] deals with T1, TYK2-JH1 (Homo sapiens, UniProt P29597).
T1 construct: recombinant purified His or GST-tagged catalytic domain for each enzyme; made in house
T1 sequence (P29597 897-1176 limits assumed): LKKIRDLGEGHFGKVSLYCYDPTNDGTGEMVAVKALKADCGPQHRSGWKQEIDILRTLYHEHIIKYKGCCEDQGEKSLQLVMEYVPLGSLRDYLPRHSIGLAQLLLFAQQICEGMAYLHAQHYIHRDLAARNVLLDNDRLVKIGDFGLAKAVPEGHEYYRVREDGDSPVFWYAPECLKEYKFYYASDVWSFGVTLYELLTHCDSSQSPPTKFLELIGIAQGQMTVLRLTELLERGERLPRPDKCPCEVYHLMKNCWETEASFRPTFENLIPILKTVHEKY
The test is described as follows: HTRF-based selectivity assay, TYK2 catalytic domain. The class given is biochemical. The following applies: kinase domain (JH1), ATP 20 μM. The method, then:
(§1) Example B-2: HTRF-Based Selectivity Assay
(§2) The ability of compounds to inhibit the activity of JAK1, JAK2, JAK3 and TYK2 is measured using a recombinant purified His or GST-tagged catalytic domain for each enzyme (JAK1, JAK2 and TYK2 are generated in-house; JAK3 was purchased from Carna biosciences, Cat #08-046) in an HTRF format biochemical assay. The reactions employs a commercial peptide substrate from Cisbio (Cat #62TK0PEC). The basic assay protocol is as follows: first, 2.5 μL of diluted compounds (4×) in DMSO are dispensed into a 384-well Optiplate. Next, 2.5 μL of enzyme (final concentrations for enzymes are: TYK2—700 ng/mL, JAK1—80.6 ng/mL, JAK2—2.1 ng/mL and JAK3—171.8 ng/mL) is added and incubated at RT for 5-20 min. Finally, 5 μl of mixture of 2×ATP [Final concentration 20 μM for TYK2, 21.43 μM for JAK1, 14.7 μM for JAK2 and 2.12 μM for JAK3]+2× Substrate [Final concentration 217 nM for TYK2, 454.7 nM for JAK1, 200 nM for JAK2 and 257.4 nM for JAK3] is added to 384 well Optiplate. Composition of Kinase assay buffer used in the assay is as follows: HEPES 50 mM, EGTA 1 mM, MgCl2 10 mM, DTT 2 mM, Tween-20 0.01% and water. Then the plates are shaken and then incubated at 26.5° C. for 60 min.

The target in test [2] is T2, JAK3-JH1 (Homo sapiens, UniProt P52333).
T2 construct: recombinant purified His or GST-tagged catalytic domain for each enzyme; purchased Carna biosciences 08-046
Put plainly: HTRF-based selectivity assay, JAK3 catalytic domain. The test is classed as biochemical. The following applies: kinase domain (JH1), ATP 2.12 μM. The method, then: as §1, §2

Test [3] has as its target T3, JAK1-JH1 (Homo sapiens, UniProt P23458).
T3 construct: recombinant purified His or GST-tagged catalytic domain for each enzyme; made in house
The test is described as follows: HTRF-based selectivity assay, JAK1 catalytic domain. The class given is biochemical. The settings on record: kinase domain (JH1), ATP 21.43 μM. The method, then:
as §1, §2

Test [4] has as its target T4, TYK2 Pseudokinase (JH2) (Homo sapiens, UniProt P29597). The test is described as follows: HEK-Blue IFNα/β reporter assay (SEAP) for profiling TYK2 pseudokinase (JH2) inhibition. The class given is cell-based. The settings on record: HEK-Blue IFNα/β cells, 1 ng/mL human recombinant IFNα, read-out: IFNα (TYK2 inhibitory activity, IC50). The method, then:
(§3) Example B-1: HEK-Blue™ IL-23 and IFNα/β Reporter Assays for Profiling TYK2 Pseudokinase (JH2) Inhibition
(§4) HEK-Blue™ IL-23 and IFNα/β cells with a stably-integrated cytokine receptor and STAT3 or STAT1 express STAT-inducible secreted embryonic alkaline phosphatase (SEAP) reporter gene upon cytokine stimulation. These cells are plated in DMEM (Gibco) containing 10% heat-inactivated FBS (Gibco) and 100 U/mL PenStrep (Gibco) at 37° C. under 5% CO2 conditions for 20-22 hours. The cells are then pretreated with serially diluted test compounds for 60 min prior to stimulation with either 10 ng/mL human recombinant IL-23 (Miltenyl Biotech) or 1 ng/mL human recombinant IFNα (InvivoGen) for 22-24 hours for IL-23 or 16-18 h for IFNα. SEAP induction is measured using the QUANTI Blue™ Solution (InvivoGen) according to the manufacturer's instructions.
For orientation: A reporter such as luciferase makes a cellular process visible.

The test system of test [5] is HEK-Blue™ IFNγ reporter cells. Put plainly: HEK-Blue IFNγ reporter assay (SEAP) for determining selectivity. The class given is cell-based. The settings on record: 50 ng/mL human recombinant IFNγ, read-out: IFN-γ (SEAP selectivity, IC50). As for the experimental part:
(§5) Example B-3: HEK-Blue™ IL-2 and IFNγ Reporter Assays for Determining Selectivity
(§6) HEK-Blue™ IL-2 and IFNγ reporter cells with a stably-integrated cytokine receptor and STAT5 or STAT1 express STAT-inducible secreted embryonic alkaline phosphatase (SEAP) reporter gene upon cytokine stimulation. These cells were plated in DMEM (Gibco) containing 10% heat-inactivated FBS (Gibco) and 100 U/mL PenStrep (Gibco) at 37° C. under 5% CO2 conditions for 20-22 hours. The cells were then pre-treated with serially diluted test compounds for 60 min prior to stimulation with either 4 ng/mL human recombinant IL-2 (Miltenyl Biotech) or 50 ng/mL human recombinant IFNγ (InvivoGen) for 24 hours. SEAP induction was measured using the QUANTI-Blue™ Solution (InvivoGen) according to the manufacturer's instructions.

In test [6] the test system is HEK-Blue™ IL-2 reporter cells. The test is described as follows: HEK-Blue IL-2 reporter assay (SEAP) for determining selectivity. The test is classed as cell-based. The following applies: HEK-Blue IL-2 cells, 4 ng/mL human recombinant IL-2, SEAP reporter. The method, then: as §5, §6
Test [7] deals with T4, TYK2 Pseudokinase (JH2). The test is described as follows: HEK-Blue IL-23 reporter assay (SEAP) for profiling TYK2 pseudokinase (JH2) inhibition. The test is classed as cell-based. Also on record: HEK-Blue™ IL-23 and IFNα/β cells with a stably-integrated cytokine receptor and STAT3 or STAT1; endogenous in cells; host or cells: HEK-Blue IL-23 and HEK-Blue IFNα/β cells. The following applies: HEK-Blue IL-23 cells, 10 ng/mL human recombinant IL-23, SEAP reporter; read-out: IL23 (TYK2 inhibitory activity, IC50). The method, then: as §3, §4

For test [8], the target named is T5, JAK2-JH1 (Homo sapiens, UniProt O60674).
T5 construct: recombinant purified His or GST-tagged catalytic domain for each enzyme; made in house
Put plainly: HTRF-based selectivity assay, JAK2 catalytic domain. The settings on record: kinase domain (JH1), ATP 14.7 μM. The test is classed as biochemical. As for the experimental part: as §1, §2

T4 sequence (P29597 whole entry): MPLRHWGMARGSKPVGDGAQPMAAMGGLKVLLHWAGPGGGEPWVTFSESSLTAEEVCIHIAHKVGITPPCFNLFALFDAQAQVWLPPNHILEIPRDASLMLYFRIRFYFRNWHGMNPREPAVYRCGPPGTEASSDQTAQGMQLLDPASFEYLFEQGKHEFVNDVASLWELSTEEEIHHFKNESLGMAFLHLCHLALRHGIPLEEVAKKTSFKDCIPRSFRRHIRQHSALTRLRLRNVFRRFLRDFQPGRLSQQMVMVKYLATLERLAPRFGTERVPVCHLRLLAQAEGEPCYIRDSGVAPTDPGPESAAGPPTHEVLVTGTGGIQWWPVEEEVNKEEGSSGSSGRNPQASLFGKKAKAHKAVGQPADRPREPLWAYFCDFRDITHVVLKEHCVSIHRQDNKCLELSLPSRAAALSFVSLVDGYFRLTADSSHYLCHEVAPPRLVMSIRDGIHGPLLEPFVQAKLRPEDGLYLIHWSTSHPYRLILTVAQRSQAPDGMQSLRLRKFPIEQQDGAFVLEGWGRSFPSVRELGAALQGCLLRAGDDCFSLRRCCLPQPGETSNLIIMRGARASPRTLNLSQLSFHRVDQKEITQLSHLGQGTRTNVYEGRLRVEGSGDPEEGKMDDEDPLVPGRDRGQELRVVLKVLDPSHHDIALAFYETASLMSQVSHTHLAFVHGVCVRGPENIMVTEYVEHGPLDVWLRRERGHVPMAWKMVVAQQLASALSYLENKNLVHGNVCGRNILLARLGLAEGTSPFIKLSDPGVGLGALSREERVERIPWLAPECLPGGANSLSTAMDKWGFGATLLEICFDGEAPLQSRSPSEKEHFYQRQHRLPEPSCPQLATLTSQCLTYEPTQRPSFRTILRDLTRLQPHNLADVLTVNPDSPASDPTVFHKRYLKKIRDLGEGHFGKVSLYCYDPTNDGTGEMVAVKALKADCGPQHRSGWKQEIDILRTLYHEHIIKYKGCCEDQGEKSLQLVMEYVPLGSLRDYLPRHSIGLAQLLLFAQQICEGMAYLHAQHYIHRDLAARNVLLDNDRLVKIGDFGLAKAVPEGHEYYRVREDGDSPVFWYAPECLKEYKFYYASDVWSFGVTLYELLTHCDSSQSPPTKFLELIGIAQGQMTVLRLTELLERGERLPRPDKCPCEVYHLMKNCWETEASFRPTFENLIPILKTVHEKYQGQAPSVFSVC
T5 sequence (O60674 849-1124 limits assumed): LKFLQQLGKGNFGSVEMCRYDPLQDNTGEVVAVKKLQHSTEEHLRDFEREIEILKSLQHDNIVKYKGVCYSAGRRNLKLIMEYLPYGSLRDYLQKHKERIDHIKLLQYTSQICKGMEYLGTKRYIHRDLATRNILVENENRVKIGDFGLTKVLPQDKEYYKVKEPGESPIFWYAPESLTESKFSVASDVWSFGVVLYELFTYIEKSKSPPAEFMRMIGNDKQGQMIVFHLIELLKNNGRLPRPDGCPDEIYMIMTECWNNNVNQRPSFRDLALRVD
T3 sequence (P23458 875-1153 limits assumed): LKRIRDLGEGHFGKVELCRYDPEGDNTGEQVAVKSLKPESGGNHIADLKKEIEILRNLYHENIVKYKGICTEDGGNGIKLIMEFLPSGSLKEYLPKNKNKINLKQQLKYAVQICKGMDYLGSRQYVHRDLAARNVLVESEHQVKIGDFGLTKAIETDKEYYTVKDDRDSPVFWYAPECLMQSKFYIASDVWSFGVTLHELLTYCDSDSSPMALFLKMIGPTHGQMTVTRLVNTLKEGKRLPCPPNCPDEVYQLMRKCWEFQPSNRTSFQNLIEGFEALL
T2 sequence (P52333 822-1111 limits assumed): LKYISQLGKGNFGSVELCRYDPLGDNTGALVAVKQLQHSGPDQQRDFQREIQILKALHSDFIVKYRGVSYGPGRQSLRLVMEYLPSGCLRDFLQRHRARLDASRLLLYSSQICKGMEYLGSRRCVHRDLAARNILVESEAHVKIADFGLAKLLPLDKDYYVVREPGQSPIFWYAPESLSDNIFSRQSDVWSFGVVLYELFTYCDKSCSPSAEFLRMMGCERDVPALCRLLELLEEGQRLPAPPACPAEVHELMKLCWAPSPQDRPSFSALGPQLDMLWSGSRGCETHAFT

Broadly, the IC50 is the concentration at which inhibition is half-maximal. As for `[2H]C([2H])([2H])NC(=O)c1cnc(NC(=O)C2CC2)cc1Nc1cc(F)cc2c1N(C)Cc1nn(C)c(=O)n1-2` [Compound 16, 6-(cyclopropanecarboxamido)-4-((8-fluoro-2,5-dimethyl-1-oxo-1,2,4,5-tetrahydro-[1,2,4]triazolo[4,3-a]quinoxalin-6-yl)amino)-N-(methyl-d3)nicotinamide], the IC50 is above 1 µM in test [1]; above 1 µM in test [2]; above 1 µM in test [3]; below 0.03 µM in test [4]; above 1 µM in test [5]; above 1 µM in test [6]. For the same compound, the concentration for half-maximal inhibition (IC50) in test [7] was below 0.03 µM; in test [8], above 1 µM.
As to `[2H]C([2H])([2H])NC(=O)c1nnc(NC(=O)C2CC2)cc1Nc1cccc2c1N(C)Cc1nn(C)c(=O)n1-2` [Compound 17, 6-(cyclopropanecarboxamido)-4-((2,5-dimethyl-1-oxo-1,2,4,5-tetrahydro-[1,2,4]triazolo[4,3-a]quinoxalin-6-yl)amino)-N-(methyl-d3)pyridazine-3-carboxamide], the concentration for half-maximal inhibition (IC50) is above 1 µM in test [1]; above 1 µM in test [2]; above 1 µM in test [3]; below 0.03 µM in test [4]; 0.03 to 0.3 µM in test [5]; above 1 µM in test [6]. In addition, the IC50 in test [7] was below 0.03 µM; in test [8], above 1 µM.
